Laboratory results from article PMC11240139, “Exploring the antitumor potential of novel quinoline derivatives via tubulin polymerization inhibition in breast cancer; design, synthesis and molecular docking” (RSC Advances, 2024).

Legend:
Assay type in all cases: cell-based
TK-10 (renal cancer) = test: NCI-60 SRB cytotoxicity screen; conditions: Homo sapiens; TK-10, single dose 10 μM; read-out: growth inhibition (GI%)
CAKI-1 (renal cancer) = test: NCI-60 SRB cytotoxicity screen; conditions: Homo sapiens; CAKI-1, single dose 10 μM; read-out: growth inhibition (GI%)
M14 (melanoma) = test: NCI-60 SRB cytotoxicity screen; conditions: Homo sapiens; M14, single dose 10 μM; read-out: growth inhibition (GI%)
HCC-2998 (colon cancer) = test: NCI-60 SRB cytotoxicity screen; conditions: Homo sapiens; HCC-2998, single dose 10 μM; read-out: growth inhibition (GI%)
MOLT-4 (leukemia) = test: NCI-60 SRB cytotoxicity screen; conditions: Homo sapiens; MOLT-4, single dose 10 μM; read-out: growth inhibition (GI%)
[1] = tested on: NCI-H460 (non-small cell lung cancer); test: NCI-60 SRB cytotoxicity screen; conditions: Homo sapiens; NCI-H460, single dose 10 μM; read-out: growth inhibition (GI%)
[2] = tested on: MDA-MB-231/ATCC (breast cancer); test: NCI-60 SRB cytotoxicity screen; conditions: Homo sapiens, MDA-MB-231, read-out: growth inhibition (GI%);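 note: growth inhibition in percent at a single 10 µM dose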
[3] = tested on: 60 cancer cell lines (NCI); test: NCI-60 single-dose screen, overall verdict over the panel; conditions: single dose 10 μM, whole panel
Experimental: (§1) The cytotoxic activity of the synthesized quinoline derivatives was determined by the national cancer institute (NCI, Bethesda, Maryland, USA) against 60 different cancer cell lines at a single high dose (10^−5 M) in the full NCI 60 cell panel using the sulforhodamine B assay for cell viability evaluation. In summary, 5 × 10^3 cells were in 96-well plate and incubated in complete media for 24 h. Cells were treated with 100 μL of media containing each newly synthesized compound. After drug exposure, cells were fixed by replacing media with 150 μL of 10% TCA and incubated at 4 °C for 1 h. The TCA solution was removed, and the cells were washed 5 times with distilled water. Aliquots of 70 μL SRB solution (0.4% w/v) were added and incubated in a dark place at room temperature for 10 min. The plates were washed 3 times with 1% acetic acid and allowed to air-dry overnight. Then, 150 μL of TRIS (10 mM) was added to dissolve protein-bound SRB stain. The absorbance was measured at 540 nm.% Cytotoxicity = [1 − (AVx/AVNC)] × 100where AVx denotes the average absorbance of the sample well and AVNC denotes the average absorbance of the negative control.

[4] = tested on: HOP-92 (non-small cell lung cancer); test: NCI-60 SRB cytotoxicity screen; conditions: Homo sapiens; HOP-92, single dose 10 μM; read-out: growth inhibition (GI%)
OVCAR-4 (ovarian cancer) = test: NCI-60 SRB cytotoxicity screen; conditions: Homo sapiens; OVCAR-4, single dose 10 μM; read-out: growth inhibition (GI%)
[5] = tested on: NCI-H322M (non-small cell lung cancer); test: NCI-60 SRB cytotoxicity screen; conditions: Homo sapiens, single dose 10 μM, read-out: growth inhibition (GI%)
[6] = tested on: NCI-H226 (non-small cell lung cancer); test: NCI-60 SRB cytotoxicity screen; conditions: Homo sapiens; NCI-H226, single dose 10 μM; read-out: growth inhibition (GI%)
HL-60(TB) (leukemia) = test: NCI-60 SRB cytotoxicity screen; conditions: Homo sapiens, single dose 10 μM, read-out: growth inhibition (GI%)
786-0 (renal cancer) = test: NCI-60 SRB cytotoxicity screen; conditions: Homo sapiens; 786-0, single dose 10 μM; read-out: growth inhibition (GI%)
UO-31 (renal cancer) = test: NCI-60 SRB cytotoxicity screen; conditions: Homo sapiens; UO-31, single dose 10 μM; read-out: growth inhibition (GI%)
[7] = tested on: MDA-MB-468 (breast cancer); test: NCI-60 SRB cytotoxicity screen; conditions: Homo sapiens; MDA-MB-468, single dose 10 μM; read-out: growth inhibition (GI%)
Experimental: as §1
The methodology of the NCI anticancer screening has been described in details at (http://www.dtp.nci.nih.gov). The anticancer assay was performed in full NCI 60 cell lines derived from nine tumor subpanels, including leukemia, lung, colon, CNS, melanoma, ovarian, renal, prostate, and breast cancer cell lines.
The cell lines were first cultured for 48 h, after being exposed to a single dosage of the compound. Using the protein-binding dye sulforhodamine B dye, cell proliferation and viability were evaluated (SRB assay). The results were presented for each chemical as GI%. Compound that met NCI criteria for substantial activity were further evaluated using a five-dose experiment. The NCI60 cell lines were treated with the chemicals in this assay at five different concentration levels (0.01, 0.1, 1, 10, and 100 μM).

SNB-19 (CNS cancer) = test: NCI-60 SRB cytotoxicity screen; conditions: Homo sapiens; SNB-19, single dose 10 μM; read-out: growth inhibition (GI%)
SK-MEL-28 (melanoma) = test: NCI-60 SRB cytotoxicity screen; conditions: Homo sapiens; SK-MEL-28, single dose 10 μM; read-out: growth inhibition (GI%)
MDA-MB-435 (melanoma) = test: NCI-60 SRB cytotoxicity screen; conditions: Homo sapiens, MDA-MB-435, read-out: growth inhibition (GI%);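 note: growth inhibition in percent at a single 10 µM dose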
MCF7 (breast cancer) = test: NCI-60 SRB cytotoxicity screen; conditions: Homo sapiens; MCF7, single dose 10 μM; read-out: growth inhibition (GI%)
SF-539 (CNS cancer) = test: NCI-60 SRB cytotoxicity screen; conditions: Homo sapiens; SF-539, single dose 10 μM; read-out: growth inhibition (GI%)
SN12C (renal cancer) = test: NCI-60 SRB cytotoxicity screen; conditions: Homo sapiens, single dose 10 μM, read-out: growth inhibition (GI%)
[8] = tested on: NCI-H23 (non-small cell lung cancer); test: NCI-60 SRB cytotoxicity screen; conditions: Homo sapiens; NCI-H23, single dose 10 μM; read-out: growth inhibition (GI%)
SW-620 (colon cancer) = test: NCI-60 SRB cytotoxicity screen; conditions: Homo sapiens; SW-620, single dose 10 μM; read-out: growth inhibition (GI%)
U251 (CNS cancer) = test: NCI-60 SRB cytotoxicity screen; conditions: Homo sapiens, U-251; U251, single dose 10 μM; read-out: growth inhibition (GI%)
OVCAR-3 (ovarian cancer) = test: NCI-60 SRB cytotoxicity screen; conditions: Homo sapiens; OVCAR-3, single dose 10 μM; read-out: growth inhibition (GI%)
SK-MEL-5 (melanoma) = test: NCI-60 SRB cytotoxicity screen; conditions: Homo sapiens; SK-MEL-5, single dose 10 μM; read-out: growth inhibition (GI%)
PC-3 (prostate cancer) = test: NCI-60 SRB cytotoxicity screen; conditions: PC-3, single dose 10 μM; read-out: growth inhibition (GI%)
HCT-116 (colon cancer) = test: NCI-60 SRB cytotoxicity screen; conditions: Homo sapiens; HCT-116, single dose 10 μM; read-out: growth inhibition (GI%)
A498 (renal cancer) = test: NCI-60 SRB cytotoxicity screen; conditions: Homo sapiens; A498, single dose 10 μM; read-out: growth inhibition (GI%)
HT29 (colon cancer) = test: NCI-60 SRB cytotoxicity screen; conditions: Homo sapiens, HT-29; HT29, single dose 10 μM; read-out: growth inhibition (GI%)

## CCc1cccc2cc(-c3cc(-c4ccc(OC)c(OC)c4)[nH]c(=S)c3C#N)c(Cl)nc12 [Compound 5b, 4-(2-Chloro-8-ethylquinolin-3-yl)-6-(3,4-dimethoxyphenyl)-2-thioxo-1,2-dihydropyridine-3-carbonitrile]
TK-10 (renal cancer)
  inhibition at 10 µM: < 10%
CAKI-1 (renal cancer)
  inhibition at 10 µM: 45.8%
M14 (melanoma)
  inhibition at 10 µM: < 10%
HCC-2998 (colon cancer)
  inhibition at 10 µM: < 10%
MOLT-4 (leukemia)
  inhibition at 10 µM: 44.3%
[1]
  inhibition at 10 µM: < 10%
[2]
  inhibition at 10 µM: 19.1%
[3]
  cytotoxic activity over the cell lines (in words): slight cytotoxic activity
[4]
  inhibition at 10 µM: 47.4%
OVCAR-4 (ovarian cancer)
  inhibition at 10 µM: 22.4%
[5]
  inhibition at 10 µM: < 10%
[6]
  inhibition at 10 µM: 20.3%
HL-60(TB) (leukemia)
  inhibition at 10 µM: < 10%
786-0 (renal cancer)
  inhibition at 10 µM: 18.7%
UO-31 (renal cancer)
  inhibition at 10 µM: 23.3%
[7]
  inhibition at 10 µM: 22.8%
SNB-19 (CNS cancer)
  inhibition at 10 µM: 22.6%
SK-MEL-28 (melanoma)
  inhibition at 10 µM: < 10%
MDA-MB-435 (melanoma)
  inhibition at 10 µM: < 10%
MCF7 (breast cancer)
  inhibition at 10 µM: 26.6%
SF-539 (CNS cancer)
  inhibition at 10 µM: 22%
SN12C (renal cancer)
  inhibition at 10 µM: 21.7%
[8]
  inhibition at 10 µM: 20.3%
SW-620 (colon cancer)
  inhibition at 10 µM: < 10%
U251 (CNS cancer)
  inhibition at 10 µM: 13.7%
OVCAR-3 (ovarian cancer)
  inhibition at 10 µM: < 10%
SK-MEL-5 (melanoma)
  inhibition at 10 µM: 21%
PC-3 (prostate cancer)
  inhibition at 10 µM: 21.3%
HCT-116 (colon cancer)
  inhibition at 10 µM: < 10%

## CCc1cccc2cc(C3C=C(c4ccc(F)cc4)NC(=S)N3)c(Cl)nc12 (centres unmarked) [Compound 6d, 4-(2-Chloro-8-ethylquinolin-3-yl)-6-(4-fluorophenyl)-3,4-dihydropyrimidine-2(1H)-thione]
A498 (renal cancer)
  inhibition at 10 µM: < 10%
HT29 (colon cancer)
  inhibition at 10 µM: 28.3%
TK-10 (renal cancer)
  inhibition at 10 µM: < 10%
CAKI-1 (renal cancer)
  inhibition at 10 µM: 26.1%
M14 (melanoma)
  inhibition at 10 µM: 10.8%
HCC-2998 (colon cancer)
  inhibition at 10 µM: < 10%
MOLT-4 (leukemia)
  inhibition at 10 µM: 48.8%
[1]
  inhibition at 10 µM: < 10%
[2]
  inhibition at 10 µM: < 10%
[3]
  cytotoxic activity over the cell lines (in words): limited cytotoxic activity
[4]
  inhibition at 10 µM: < 10%
OVCAR-4 (ovarian cancer)
  inhibition at 10 µM: 21%
[5]
  inhibition at 10 µM: < 10%
[6]
  inhibition at 10 µM: 21.7%
HL-60(TB) (leukemia)
  inhibition at 10 µM: < 10%
786-0 (renal cancer)
  inhibition at 10 µM: < 10%
UO-31 (renal cancer)
  inhibition at 10 µM: 49.5%
SNB-19 (CNS cancer)
  inhibition at 10 µM: < 10%
SK-MEL-28 (melanoma)
  inhibition at 10 µM: < 10%
MDA-MB-435 (melanoma)
  inhibition at 10 µM: < 10%
MCF7 (breast cancer)
  inhibition at 10 µM: 24.6%
SF-539 (CNS cancer)
  inhibition at 10 µM: < 10%
SN12C (renal cancer)
  inhibition at 10 µM: < 10%
[8]
  inhibition at 10 µM: 11.8%
SW-620 (colon cancer)
  inhibition at 10 µM: < 10%
U251 (CNS cancer)
  inhibition at 10 µM: < 10%
OVCAR-3 (ovarian cancer)
  inhibition at 10 µM: < 10%
SK-MEL-5 (melanoma)
  inhibition at 10 µM: < 10%
PC-3 (prostate cancer)
  inhibition at 10 µM: 22%
HCT-116 (colon cancer)
  inhibition at 10 µM: 21.5%
